Test results published in patent US20130116227A1, “BIARYL AMIDE DERIVATIVE OR PHARMACEUTICALLY ACCEPTABLE SALT THEREOF” (DAINIPPON SUMITOMO PHARMA CO., LTD., priority 2010, published 2013).
pIC50: −log10 of the molar value.

molecular target: T1, aldosterone receptor (Rattus norvegicus, UniProt P22199); experiment: Binding inhibition test for aldosterone receptor ([3H]aldosterone, rat renal soluble fraction); details: [3H]aldosterone 2 nM, rat renal soluble fraction, in the presence of 2 μM RU-486, 4° C. about 18 hours; read-out: MR IC50
T1 construct: centrifuged at 105,000 g for 30 minutes, and then a supernatant was collected as a renal soluble fraction; from tissue; host or cells: rat kidney (adrenalectomized rat), 105,000 g supernatant (cytosol)
T1 sequence (P22199 1-981): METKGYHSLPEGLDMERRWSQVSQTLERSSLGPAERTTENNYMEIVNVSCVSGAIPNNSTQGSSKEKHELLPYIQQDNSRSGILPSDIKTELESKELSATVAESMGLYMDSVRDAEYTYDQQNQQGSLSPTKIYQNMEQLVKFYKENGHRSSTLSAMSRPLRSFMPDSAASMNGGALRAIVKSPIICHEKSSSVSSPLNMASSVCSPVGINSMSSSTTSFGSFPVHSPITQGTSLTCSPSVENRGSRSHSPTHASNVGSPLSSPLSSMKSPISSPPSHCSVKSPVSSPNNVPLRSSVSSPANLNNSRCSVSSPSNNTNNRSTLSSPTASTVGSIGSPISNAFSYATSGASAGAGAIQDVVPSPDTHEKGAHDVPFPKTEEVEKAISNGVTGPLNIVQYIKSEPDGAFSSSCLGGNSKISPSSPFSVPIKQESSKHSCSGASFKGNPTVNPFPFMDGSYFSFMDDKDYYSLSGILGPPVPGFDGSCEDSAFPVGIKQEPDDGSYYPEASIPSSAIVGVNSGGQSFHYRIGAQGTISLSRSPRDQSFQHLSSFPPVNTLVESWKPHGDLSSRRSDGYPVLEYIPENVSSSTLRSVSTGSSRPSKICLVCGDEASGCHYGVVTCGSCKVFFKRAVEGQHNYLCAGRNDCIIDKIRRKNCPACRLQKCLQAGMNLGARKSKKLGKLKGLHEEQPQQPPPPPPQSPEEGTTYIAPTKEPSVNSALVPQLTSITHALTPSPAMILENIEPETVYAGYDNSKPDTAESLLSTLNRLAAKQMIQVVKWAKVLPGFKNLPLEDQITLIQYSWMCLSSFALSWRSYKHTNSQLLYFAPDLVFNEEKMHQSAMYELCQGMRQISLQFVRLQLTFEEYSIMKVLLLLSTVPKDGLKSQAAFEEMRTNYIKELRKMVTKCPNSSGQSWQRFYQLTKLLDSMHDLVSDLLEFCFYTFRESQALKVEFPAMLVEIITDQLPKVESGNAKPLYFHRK
Protocol: Binding Inhibition Test for Aldosterone Receptor
A rat was layed open in flank regions (on both sides) to remove both adrenal glands. After stitching up the incision, the rat was returnd to a breeding cage again. After removing the kidney from the rat reared for about 3 to 5 days, the kidney was homogenized in 0.1 M Tris-HCl, 0.25M sucrose, 0.1M Na2MoO4 and 2 mM DTT buffer solution (pH7.4). The resultant was centrifuged at 105,000 g for 30 minutes, and then a supernatant was collected as a renal soluble fraction.
The rat renal soluble fraction (0.5 to 1.5 mg), a labeled ligand [^3H] aldosterone (2 nM) and a test article were reacted in the presence of 2 μM RU-486 (glucocorticoid receptor antagonist) in 100 μL of total amounts at 4° C. for about 18 hours. Afterwards, to the reaction solution was added 50 μL of 5% dextran-coated activated charcoal, and the mixture was immingled, and then centrifuged at 3,000 g for 5 minutes. Then, a supernatant (100 μL) was collected and mixed with a liquid scintillator ACS-II (Amersham) (3.5 mL), and then analyzed its radioactivity by a liquid scintillation counter (manufactured by Packard, Tri Carb 2700TR). A non-specific binding was obtained by addition of 2 μM aldosterone to a reaction solution. […]
Binding inhibition rate (%)=100−{(B−N)/(B0−N)}×100
B: labeled ligand binding amounts in the presence of a test article and a labeled ligand
B0: labeled ligand binding amounts in the absence of a test article
N: labeled ligand binding amounts in the presence of excess aldosterone (2 μM)
Test example 1 was carried out for compounds obtained in the Examples.

| Structure (SMILES) | pIC50 |
| --- | --- |
| COc1cc(NC(=O)c2ccc(-c3ccccc3C(F)(F)F)c(C)c2)ccc1S(N)(=O)=O [Example 7] | 6.46 |
| COc1cc(NC(=O)c2ccc(-c3ccccc3C(F)(F)F)cc2)ccc1S(N)(=O)=O [Example 10] | 6.30 |
| COc1cc(NC(=O)c2ccc(-c3ccccc3OC(F)(F)F)cc2)ccc1S(N)(=O)=O [Example 12] | 6.21 |
| COc1cc(NC(=O)c2ccc(-c3ccccc3C)cc2)ccc1S(N)(=O)=O [Example 14] | 5.33 |
| COc1cc(NC(=O)c2ccc(-c3ccc(F)cc3C(F)(F)F)cc2)ccc1S(N)(=O)=O [Example 17] | 5.77 |
| COC(=O)c1ccccc1-c1ccc(C(=O)Nc2ccc(S(N)(=O)=O)c(OC)c2)cc1 [Example 19] | 5.48 |
| CCOC(=O)c1ccccc1-c1ccc(C(=O)Nc2ccc(S(N)(=O)=O)c(OC)c2)cc1 [Example 20] | 6.26 |
| COc1cc(NC(=O)c2ccc(-c3ccccc3CN3CCOCC3)cc2)ccc1S(N)(=O)=O [Example 22] | 5.80 |
| COC(=O)c1cc(OC)ccc1-c1ccc(C(=O)Nc2ccc(S(N)(=O)=O)c(OC)c2)cc1 [Example 24] | 5.62 |
| COc1cc(NC(=O)c2ccc(-c3ccc(O)cc3C(F)(F)F)cc2)ccc1S(N)(=O)=O [Example 26] | 6.31 |
| COCc1ccccc1-c1ccc(C(=O)Nc2ccc(S(N)(=O)=O)c(OC)c2)cc1 [Example 28] | 5.52 |
| COc1cc(NC(=O)c2ccc(-c3ccccc3C3CCCCC3)cc2)ccc1S(N)(=O)=O [Example 35] | 6.46 |
| COc1cc(NC(=O)c2ccc(-c3ccccc3C(C)C)cc2)ccc1S(N)(=O)=O [Example 36] | 5.85 |
| COc1cc(NC(=O)c2ccc(-c3ccccc3OC(C)C)cc2)ccc1S(N)(=O)=O [Example 39] | 5.92 |
| COc1cc(NC(=O)c2ccc(-c3ccccc3OC(F)(F)C(F)F)cc2)ccc1S(N)(=O)=O [Example 40] | 6.41 |
| COc1cc(NC(=O)c2ccc(-c3ccccc3-c3cccs3)cc2)ccc1S(N)(=O)=O [Example 42] | > 6.00 |
| COc1cc(NC(=O)c2ccc(-c3ccccc3-c3nc(C)no3)cc2)ccc1S(N)(=O)=O [Example 46] | 5.52 |
| COc1cc(NC(=O)c2ccc(-c3ccccc3C(F)(F)F)cc2)ccc1S(=O)(=O)N(C)C [Example 50] | 6.15 |
| CCc1ccccc1-c1ccc(C(=O)Nc2ccc(S(N)(=O)=O)c(OC)c2)cc1 [Example 56] | 6.28 |

| Structure (SMILES) | pIC50 |
| --- | --- |
| COc1cc(NC(=O)c2ccc(-c3ccccc3SC)cc2)ccc1S(N)(=O)=O [Example 57] | 6.19 |
| COc1cc(NC(=O)c2ccc(-c3ccccc3C(F)(F)F)c(OCc3ccccc3)c2)ccc1S(N)(=O)=O [Example 62] | 5.72 |
| CC(=O)OCc1cc(C(=O)Nc2ccc(S(C)(=O)=O)cc2)ccc1-c1ccccc1C(F)(F)F [Example 64] | 6.40 |
| COc1cc(NC(=O)c2ccc(-c3ccccc3C(F)(F)F)c(CN(C)C)c2)ccc1S(N)(=O)=O [Example 72] | 6.28 |
| COc1cc(NC(=O)c2ccc(-c3ccccc3C(F)(F)F)c(CN3CCCC3)c2)ccc1S(N)(=O)=O [Example 75] | 6.06 |
| COc1cc(NC(=O)c2ccc(-c3ccccc3C(F)(F)F)c(CN3CCOCC3)c2)ccc1S(N)(=O)=O [Example 79] | 6.49 |
| COc1cc(NC(=O)c2ccc(-c3ccccc3C(F)(F)F)c(CNC(C)C)c2)ccc1S(N)(=O)=O [Example 85] | 6.27 |
| COc1cc(NC(=O)c2ccc(-c3ccccc3C(F)(F)F)c(CNCC3CC3)c2)ccc1S(N)(=O)=O [Example 92] | 6.39 |
| COc1cc(NC(=O)c2ccc(-c3ccccc3C(F)(F)F)c(CN3CCC3)c2)ccc1S(N)(=O)=O [Example 94] | 6.09 |
| COc1cc(NC(=O)c2ccc(-c3ccccc3C(F)(F)F)c(COCC3CCCN(C)C3)c2)ccc1S(N)(=O)=O (stereo not shown) [Example 99] | 5.70 |
| COc1cc(NC(=O)c2ccc(-c3ccccc3C(F)(F)F)c(OCCO)c2)ccc1S(N)(=O)=O [Example 121] | 6.28 |
| CCc1ccccc1-c1ccc(C(=O)Nc2ccc(S(N)(=O)=O)c(OC)c2)cc1CO [Example 126] | 6.51 |
| CS(=O)(=O)c1ccc(NC(=O)c2ccc(-c3ccccc3OC(F)(F)F)c(CN3CCSCC3)c2)cc1 [Example 136] | 6.40 |
| CS(=O)(=O)c1ccc(NC(=O)c2ccc(-c3ccccc3OC(F)(F)F)c(CN3CCC(F)(F)C3)c2)cc1 [Example 142] | 6.38 |
| CS(=O)(=O)c1ccc(NC(=O)c2ccc(-c3ccccc3OC(F)(F)F)c(CN3CCCC(F)(F)C3)c2)cc1 [Example 144] | 6.30 |
| CS(=O)(=O)c1ccc(NC(=O)c2ccc(-c3ccccc3OC(F)(F)F)c(CNC[C@H]3CCCO3)c2)cc1 [Example 147] | > 5.00 |
| Cn1ccc(CNCc2cc(C(=O)Nc3ccc(S(C)(=O)=O)cc3)ccc2-c2ccccc2OC(F)(F)F)n1 [Example 153] | 6.33 |
| CS(=O)(=O)c1ccc(NC(=O)c2ccc(-c3ccccc3OC(F)(F)F)c(CN3CCCC3)c2)cc1 [Example 160] | 5.70 |

Continued by rising pIC50, values first:

| pIC50 | Structure (SMILES) |
| --- | --- |
| 6.54 | CCN(CC)c1cc(C(=O)Nc2ccc(S(N)(=O)=O)c(OC)c2)ccc1-c1ccccc1C(F)(F)F [Example 132] |
| 6.54 | CCN(CC)Cc1cc(C(=O)Nc2ccc(S(C)(=O)=O)cc2)ccc1-c1ccccc1OC(F)(F)F [Example 159] |
| 6.59 | COc1cc(C(=O)Nc2ccc(S(N)(=O)=O)c(OC)c2)ccc1-c1ccccc1C(F)(F)F [Example 59] |
| 6.59 | COc1cc(NC(=O)c2ccc(-c3ccccc3C(F)(F)F)c(CNC[C@H]3CCCO3)c2)ccc1S(N)(=O)=O [Example 91] |
| 6.60 | COc1cc(NC(=O)c2ccc(-c3ccccc3C(=O)OC(C)(C)C)cc2)ccc1S(N)(=O)=O [Example 31] |
| 6.60 | CS(=O)(=O)c1ccc(NC(=O)c2ccc(-c3ccccc3C(F)(F)F)c(CO)c2)cc1 [Example 65] |
| 6.66 | COc1cc(NC(=O)c2ccc(-c3ccccc3C(F)(F)F)c(CO)c2)ccc1S(N)(=O)=O [Example 69] |
| 6.66 | COc1cc(NC(=O)c2ccc(-c3ccc(F)cc3C(F)(F)F)c(CO)c2)ccc1S(N)(=O)=O [Example 127] |
| 6.68 | COc1cc(NC(=O)c2ccc(-c3ccccc3C(F)(F)F)c(COC(C)=O)c2)ccc1S(N)(=O)=O [Example 68] |
| 6.70 | CNS(=O)(=O)c1ccc(NC(=O)c2ccc(-c3ccccc3C(F)(F)F)cc2)cc1OC [Example 51] |
| 6.70 | CCOc1cc(C(=O)Nc2ccc(S(N)(=O)=O)c(OC)c2)ccc1-c1ccccc1C(F)(F)F [Example 60] |
| 6.72 | COc1cc(NC(=O)c2ccc(-c3ccccc3C(F)(F)F)c(OCCOCc3ccccc3)c2)ccc1S(N)(=O)=O [Example 109] |
| 6.77 | CCNc1cc(C(=O)Nc2ccc(S(N)(=O)=O)c(OC)c2)ccc1-c1ccccc1C(F)(F)F [Example 131] |
| 6.85 | COc1ccc(-c2ccc(C(=O)Nc3ccc(S(N)(=O)=O)c(OC)c3)cc2CO)c(C(F)(F)F)c1 [Example 128] |
| 6.89 | COc1cc(NC(=O)c2ccc(-c3ccccc3C(F)(F)F)c(COCCCO)c2)ccc1S(N)(=O)=O [Example 103] |
| 6.92 | COc1cc(NC(=O)c2ccc(-c3ccccc3C(F)(F)F)c(CCl)c2)ccc1S(N)(=O)=O [Example 81] |
| 7.09 | COc1cc(NC(=O)c2ccc(-c3ccccc3C(F)(F)F)c(COCC(OC)OC)c2)ccc1S(N)(=O)=O [Example 104] |
| 7.22 | COc1cc(NC(=O)c2ccc(-c3ccccc3OC(F)(F)F)c(CO)c2)ccc1S(N)(=O)=O [Example 122] |
